# In patent publication US7632812B2, “Methods to stimulate insulin production by pancreatic β-cells” (Massachusetts General Hospital, priority 1999, dated 2009):
# Columns and labels:
# [1] = system: INS-1 cells; test: Insulin secretion by INS-1 cells into medium over 24 h (Rat Insulin RIA); format: cell-based; conditions: INS-1 cells transfected with pEV control and insulin promoter-reporter construct; 24 h exposure; increasing amounts; FIG. 15
# Protocol: (§1) This potential role was examined with the rat INS-1 cell line, which intrinsically expresses Ihh and Dhh proteins (FIGS. 13 and 14). […] Insulin levels were measured with a Rat Insulin RIA Kit (LINCO Research, Inc., St. Louis, Mo.) using the protocol outlined by the manufacturer. […] After 24 hours of incubation, 500 μL aliquots of culture medium were removed and serially diluted for the assay. Culture medium that was not exposed to cells was tested as a negative control for the assay. In some experiments, transfected cells were assessed for insulin secretion rates. In these experiments, after incubation with lipofectamine and DNA, the transfected cells received fresh culture medium and 24-hour insulin secretion rates were assessed. Given that the cells intrinsically express hedgehog, the cells were also treated with cyclopamine in the absence of any transfection. […] Cells were then rinsed in phosphate buffered saline and lysed in 0.1N HCl in 100% ethanol at 4° C. The lysate was incubated overnight at−70° C. The thawed lysate was vortexed and subjected to brief centrifugation at 14,000 rpm. The resulting supernatant was dried under vacuum, resuspended in […] Assay buffer, and serially diluted for insulin measurements with the Rat Insulin RIA Kit.
# [2] = system: INS-1 cells; test: Cellular insulin content of INS-1 cells (Rat Insulin RIA of lysate); format: cell-based; conditions: untransfected INS-1 cells, 20 μM, 24 hours; FIG. 16
# Protocol: as §1
# [3] = system: insulin mRNA in INS-1 cells; test: Northern blot of insulin mRNA levels in INS-1 cells; format: cell-based, rat; conditions: 20 μM, Northern RNA blots, FIG. 17
# Protocol: For isolation of total RNA, cells were washed in phosphate buffered saline and lysed with Tri-Reagent (SIGMA, St-Louis, Mo.). Total cellular RNA was prepared according to the manufacturer's protocol. For each sample, 4 μg total RNA was separated by electrophoresis on a denaturing gel consisting of 1× MOPS, 1.2% agarose and 1% formaldehyde. Samples were transferred using standard methods (Ausubel et al., Short Protocols in Molecular Biology, Third Edition, John Wiley and Sons, Inc., 1995.) to nylon membranes (Hybond-N+, Amersham Pharmacia Biotech, Inc., Piscataway, N.J.) and crosslinked with ultraviolet light (UV Stratalinker 1800, Stratagene, La Jolla, Calif.). The membranes were prehybridized in Rapid-Hyb Buffer (Amersham Pharmacia Biotech, Inc.) prior to hybridization for 4 hours at 65° C. with radiolabeled probes. Insulin transcripts were probed with a 231 nucleotide fragment (spanning nucleotides 349 to 580 of the rat insulin I gene, Genbank acc. no. V01242) of rat insulin I cDNA. […] For quantitation, autoradiograms were scanned with a Computing Densitometer (Molecular Dynamics, Sunnyvale, Calif.) and individual band intensities were determined with ImageQuant software (Molecular Dynamics, Sunnyvale, Calif.). […]
# [4] = system: rat insulin I promoter; test: Rat insulin I promoter luciferase reporter (-410 INS-luc) in transfected INS-1 cells; format: cell-based; conditions: absence of the Shh expression construct, dose-dependent, FIG. 19
# Protocol: To determine whether hedgehog regulation of insulin production occurs at the transcriptional level, INS-1 cells were transiently transfected with 5-6 μg total DNA and 10 μL Lipofectamine according to the manufacturer's instructions (GIBCO BRL Life Technologies, Inc., Gaithersburg, Md.) with increasing concentrations of Shh expression vector pSHH in the presence of a rat insulin I promoter-reporter construct −410 INS-luc. […] The plasmid −410 INS-LUC consists of a fragment of the rat insulin I gene promoter that spans nucleotides −410 to +49 inserted into the pXP2 vector that includes firefly luciferase reporter sequences (Lu, M., et al, 1997, J. Biol. Chem.: 272:28349). […] For luciferase assays, cells were harvested 24 hours after transfection with 1× Reporter Lysis Buffer (Promega, Madison, Wis.). Luciferase assays were conducted with the Luciferase Assay System as outlined by the manufacturer (Promega, Madison, Wis.). Luciferase activities were normalized for extract protein concentrations as determined by the Bio-Rad Protein Assay (Bio-Rad Laboratories, Hercules, Calif.), a modified Bradford assay (Bradford, M., 1976, Anal. Biochem., 72:248).
compound,measurement,setting,value
CC1=C2C[C@H]3[C@@H](CC=C4C[C@@H](O)CC[C@@]43C)[C@@H]2CC[C@]12O[C@@H]1C[C@H](C)CN[C@H]1[C@H]2C [cyclopamine],effect on insulin secretion,[1],increasingly inhibited insulin secretion
same,reduction in cellular insulin content,[2],40%
same,levels of insulin mRNA,[3],decrease in the levels of insulin mRNA
same,inhibition of basal insulin promoter activity,[4],up to 90%
